Results as given in ChEMBL document CHEMBL5537115, “New broad-spectrum and potent antibacterial agents with dual-targeting mechanism: Promoting FtsZ polymerization and disrupting bacterial membranes” (Eur J Med Chem, 2024).

Columns and labels:
Type in all cases: functional
Staphylococcus aureus [1] = assay: Antibacterial activity against penicillin-resistant Staphylococcus aureus ATCC31007 assessed as bacterial growth inhibition incubated for 20 hrs by CLSI based broth microdilution method
Escherichia coli [2] = assay: Antibacterial activity against penicillin-susceptible Escherichia coli ATCC25922 assessed as bacterial growth inhibition incubated for 20 hrs by CLSI based broth microdilution method
Acinetobacter baumannii = assay: Antibacterial activity against Acinetobacter baumannii ATCC19606 assessed as bacterial growth inhibition incubated for 20 hrs by CLSI based broth microdilution method
Enterococcus faecalis [3] = assay: Antibacterial activity against vancomycin-resistant Enterococcus faecalis ATCC51299 assessed as bacterial growth inhibition incubated for 20 hrs by CLSI based broth microdilution method
Staphylococcus aureus [4] = assay: Antibacterial activity against erythromycin-susceptible Staphylococcus aureus ATCC25923 assessed as bacterial growth inhibition incubated for 20 hrs by CLSI based broth microdilution method
Klebsiella pneumoniae = assay: Antibacterial activity against Klebsiella pneumoniae ATCC BAA-1902 assessed as bacterial growth inhibition incubated for 20 hrs by CLSI based broth microdilution method
Bacillus pumilus = assay: Antibacterial activity against penicillin-susceptible Bacillus pumilus CMCC63202 assessed as bacterial growth inhibition incubated for 20 hrs by CLSI based broth microdilution method
Streptococcus pyogenes [5] = assay: Antibacterial activity against erythromycin-resistant Streptococcus pyogenes 2 clinical isolate assessed as bacterial growth inhibition incubated for 20 hrs by CLSI based broth microdilution method
[6] = tested on: Staphylococcus epidermidis; assay: Antibacterial activity against penicillin-resistant Staphylococcus epidermidis clinical isolate assessed as bacterial growth inhibition incubated for 20 hrs by CLSI based broth microdilution method
Streptococcus pyogenes [7] = assay: Antibacterial activity against erythromycin-susceptible Streptococcus pyogenes 1 assessed as bacterial growth inhibition incubated for 20 hrs by CLSI based broth microdilution method
Enterococcus faecalis [8] = assay: Antibacterial activity against vancomycin-susceptible Enterococcus faecalis ATCC29212 assessed as bacterial growth inhibition incubated for 20 hrs by CLSI based broth microdilution method
Enterococcus faecium [9] = assay: Antibacterial activity against vancomycin-resistant Enterococcus faecium ATCC51559 assessed as bacterial growth inhibition incubated for 20 hrs by CLSI based broth microdilution method
Bacillus subtilis = assay: Antibacterial activity against penicillin-susceptible Bacillus subtilis ATCC9372 assessed as bacterial growth inhibition incubated for 20 hrs by CLSI based broth microdilution method
Staphylococcus aureus [10] = assay: Antibacterial activity against Staphylococcus aureus clinical isolate assessed as bacterial growth inhibition incubated for 20 hrs by CLSI based broth microdilution method
Escherichia coli [11] = assay: Antibacterial activity against wild-type Escherichia coli BW25113 assessed as bacterial growth inhibition incubated for 20 hrs by CLSI based broth microdilution method
Enterococcus faecium [12] = assay: Antibacterial activity against vancomycin-susceptible Enterococcus faecium ATCC19434 assessed as bacterial growth inhibition incubated for 20 hrs by CLSI based broth microdilution method
Staphylococcus aureus [13] = assay: Antibacterial activity against methicillin-resistant Staphylococcus aureus ATCC43300 assessed as bacterial growth inhibition incubated for 20 hrs by CLSI based broth microdilution method

SMILES | MIC (Staphylococcus aureus [1]) | MIC (Escherichia coli [2]) | MIC (Acinetobacter baumannii) | MIC (Enterococcus faecalis [3]) | MIC (Staphylococcus aureus [4]) | MIC (Klebsiella pneumoniae) | MIC (Bacillus pumilus) | MIC (Streptococcus pyogenes [5]) | MIC [6] | MIC (Streptococcus pyogenes [7]) | MIC (Enterococcus faecalis [8]) | MIC (Enterococcus faecium [9]) | MIC (Bacillus subtilis) | MIC (Staphylococcus aureus [10]) | MIC (Escherichia coli [11]) | MIC (Enterococcus faecium [12]) | MIC (Staphylococcus aureus [13])
C[n+]1cc(-c2ccccc2)c(/C=C/c2ccc(C(C)(C)C)cc2)cc1-c1ccc2ccccc2c1.[I-] | 2 µg/mL | 64 µg/mL | 1 µg/mL | 2 µg/mL | 1 µg/mL | 8 µg/mL | 0.5 µg/mL | 4 µg/mL | 2 µg/mL | 1 µg/mL | 1 µg/mL | 2 µg/mL | 0.5 µg/mL | 0.5 µg/mL | 4 µg/mL | 2 µg/mL | 1 µg/mL
CCc1ccc(/C=C/c2cc(-c3ccc(C(C)(C)C)cc3)[n+](C)cc2-c2ccccc2C)cc1.[I-] | 1 µg/mL | 4 µg/mL | 2 µg/mL | 1 µg/mL | 0.125 µg/mL | 8 µg/mL | 1 µg/mL | 4 µg/mL | 1 µg/mL | 4 µg/mL | 2 µg/mL | 0.5 µg/mL | 0.5 µg/mL | 0.5 µg/mL | > 64 µg/mL | 1 µg/mL | 0.5 µg/mL
CC(C)c1ccc(/C=C/c2cc(-c3ccc4ccccc4c3)[n+](C)cc2-c2ccccc2)cc1.[I-] | 2 µg/mL | 64 µg/mL | 2 µg/mL | 4 µg/mL | 0.5 µg/mL | 16 µg/mL | 0.5 µg/mL | 4 µg/mL | 2 µg/mL | 0.5 µg/mL | 2 µg/mL | 2 µg/mL | 0.5 µg/mL | 0.5 µg/mL | 8 µg/mL | 2 µg/mL | 0.5 µg/mL
CC(C)c1ccc(/C=C/c2cc(-c3ccc(C(C)(C)C)cc3)[n+](C)cc2-c2ccccc2)cc1.[I-] | 1 µg/mL | 2 µg/mL | 1 µg/mL | 0.5 µg/mL | 0.125 µg/mL | 8 µg/mL | 0.25 µg/mL | 2 µg/mL | 1 µg/mL | 4 µg/mL | 1 µg/mL | 1 µg/mL | 0.125 µg/mL | 0.5 µg/mL | 4 µg/mL | 1 µg/mL | 0.25 µg/mL
C[n+]1cc(-c2ccccc2)c(/C=C/c2ccc(N)cc2)cc1-c1ccc(C(C)(C)C)cc1.[I-] | 2 µg/mL | 16 µg/mL | 4 µg/mL | 4 µg/mL | 0.125 µg/mL | 16 µg/mL | 2 µg/mL | 2 µg/mL | 4 µg/mL | 4 µg/mL | 4 µg/mL | 4 µg/mL | 0.5 µg/mL | 0.25 µg/mL | 32 µg/mL | 4 µg/mL | 0.5 µg/mL
CCCOc1ccc(/C=C/c2cc(-c3ccccc3)c[n+](C)c2-c2ccccc2)cc1.[I-] | 4 µg/mL | 32 µg/mL | 8 µg/mL | 8 µg/mL | 0.5 µg/mL | 8 µg/mL | 4 µg/mL | 4 µg/mL | 4 µg/mL | 2 µg/mL | 8 µg/mL | 8 µg/mL | 2 µg/mL | 0.5 µg/mL | 64 µg/mL | 8 µg/mL | 2 µg/mL
C[n+]1cc(-c2ccccc2)cc(/C=C/c2ccc(Cl)cc2)c1-c1ccccc1.[I-] | 16 µg/mL | 64 µg/mL | 8 µg/mL | 16 µg/mL | 2 µg/mL | > 64 µg/mL | 8 µg/mL | 4 µg/mL | 8 µg/mL | 4 µg/mL | 16 µg/mL | 16 µg/mL | 4 µg/mL | 2 µg/mL | > 64 µg/mL | 16 µg/mL | 4 µg/mL
C[n+]1cc(-c2ccccc2)cc(/C=C/c2ccc(C(C)(C)C)cc2)c1-c1ccccc1.[I-] | 4 µg/mL | 16 µg/mL | 4 µg/mL | 1 µg/mL | 0.25 µg/mL | 32 µg/mL | 2 µg/mL | 2 µg/mL | 2 µg/mL | 8 µg/mL | 4 µg/mL | 2 µg/mL | 0.5 µg/mL | 2 µg/mL | 16 µg/mL | 2 µg/mL | 1 µg/mL
C[n+]1cc(-c2ccccc2)cc(/C=C/c2ccccc2[N+](=O)[O-])c1-c1ccccc1.I | > 64 µg/mL | > 64 µg/mL | 64 µg/mL | > 64 µg/mL | 8 µg/mL | > 64 µg/mL | 64 µg/mL | 16 µg/mL | 64 µg/mL | 16 µg/mL | > 64 µg/mL | > 64 µg/mL | 16 µg/mL | 32 µg/mL | > 64 µg/mL | > 64 µg/mL | 32 µg/mL
